Source: US20240246942A1, “KINASE INHIBITORS FOR THE TREATMENT OF NEURODEGENERATIVE DISEASES” (priority 2020, published 2024)

Key:
Assay in all cases: biochemical
[1] = biological target: T1, panel of 374 wild-type kinases (Homo sapiens, UniProt P23458); conditions: read-out: % Enzyme Activity (relative to DMSO controls), JAK1
T1 construct: purchased Reaction Biology Corporation

[2] = biological target: T2, panel of 374 wild-type kinases (Homo sapiens, UniProt O00238); conditions: read-out: % Enzyme Activity (relative to DMSO controls), ALK6/BMPR1B
T2 construct: purchased Reaction Biology Corporation
T2 sequence (O00238 14-502): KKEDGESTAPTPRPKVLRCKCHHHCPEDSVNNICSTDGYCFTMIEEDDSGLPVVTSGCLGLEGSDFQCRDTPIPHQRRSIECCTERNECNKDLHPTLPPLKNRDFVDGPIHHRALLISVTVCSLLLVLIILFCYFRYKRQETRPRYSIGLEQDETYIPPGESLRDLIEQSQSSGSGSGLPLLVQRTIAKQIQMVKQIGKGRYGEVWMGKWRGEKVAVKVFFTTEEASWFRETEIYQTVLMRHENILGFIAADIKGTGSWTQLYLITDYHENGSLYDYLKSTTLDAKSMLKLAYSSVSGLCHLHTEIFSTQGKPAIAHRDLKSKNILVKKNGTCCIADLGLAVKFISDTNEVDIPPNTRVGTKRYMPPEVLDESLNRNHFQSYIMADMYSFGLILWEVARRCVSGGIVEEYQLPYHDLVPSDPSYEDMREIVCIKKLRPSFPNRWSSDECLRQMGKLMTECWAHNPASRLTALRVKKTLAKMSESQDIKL

[3] = biological target: T3, panel of 374 wild-type kinases (Homo sapiens, UniProt Q7L7X3); conditions: read-out: % Enzyme Activity (relative to DMSO controls), kinase TAOK1
T3 construct: purchased Reaction Biology Corporation
T3 sequence (Q7L7X3 1-1001): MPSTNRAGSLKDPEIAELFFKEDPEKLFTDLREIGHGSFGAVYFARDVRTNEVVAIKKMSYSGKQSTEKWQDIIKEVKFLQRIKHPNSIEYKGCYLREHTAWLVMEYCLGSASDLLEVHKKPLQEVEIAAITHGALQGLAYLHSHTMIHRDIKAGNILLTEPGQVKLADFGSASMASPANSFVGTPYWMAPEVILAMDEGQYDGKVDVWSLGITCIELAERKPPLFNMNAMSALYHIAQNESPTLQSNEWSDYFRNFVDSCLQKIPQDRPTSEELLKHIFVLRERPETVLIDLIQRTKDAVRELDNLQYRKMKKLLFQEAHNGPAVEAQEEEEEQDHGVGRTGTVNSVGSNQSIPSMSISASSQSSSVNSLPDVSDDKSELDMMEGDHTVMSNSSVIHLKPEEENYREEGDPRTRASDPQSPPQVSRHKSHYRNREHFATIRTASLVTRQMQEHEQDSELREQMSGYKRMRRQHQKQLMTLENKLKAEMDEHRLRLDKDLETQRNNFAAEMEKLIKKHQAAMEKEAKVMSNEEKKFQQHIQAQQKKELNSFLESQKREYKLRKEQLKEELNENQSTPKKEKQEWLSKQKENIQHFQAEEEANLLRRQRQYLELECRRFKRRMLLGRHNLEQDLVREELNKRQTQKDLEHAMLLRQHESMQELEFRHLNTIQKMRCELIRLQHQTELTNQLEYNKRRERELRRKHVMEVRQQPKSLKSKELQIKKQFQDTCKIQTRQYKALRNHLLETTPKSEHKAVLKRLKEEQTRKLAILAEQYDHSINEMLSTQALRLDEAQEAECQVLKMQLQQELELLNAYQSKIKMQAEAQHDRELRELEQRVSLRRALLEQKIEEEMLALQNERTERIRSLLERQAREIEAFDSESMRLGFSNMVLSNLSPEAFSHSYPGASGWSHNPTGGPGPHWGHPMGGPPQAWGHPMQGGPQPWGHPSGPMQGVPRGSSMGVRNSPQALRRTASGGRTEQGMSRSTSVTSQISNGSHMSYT

[4] = biological target: T4, panel of 374 wild-type kinases (Homo sapiens, UniProt Q9HBH9); conditions: read-out: % Enzyme Activity (relative to DMSO controls), MNK2
T4 construct: purchased Reaction Biology Corporation
T4 sequence (Q9HBH9 whole entry): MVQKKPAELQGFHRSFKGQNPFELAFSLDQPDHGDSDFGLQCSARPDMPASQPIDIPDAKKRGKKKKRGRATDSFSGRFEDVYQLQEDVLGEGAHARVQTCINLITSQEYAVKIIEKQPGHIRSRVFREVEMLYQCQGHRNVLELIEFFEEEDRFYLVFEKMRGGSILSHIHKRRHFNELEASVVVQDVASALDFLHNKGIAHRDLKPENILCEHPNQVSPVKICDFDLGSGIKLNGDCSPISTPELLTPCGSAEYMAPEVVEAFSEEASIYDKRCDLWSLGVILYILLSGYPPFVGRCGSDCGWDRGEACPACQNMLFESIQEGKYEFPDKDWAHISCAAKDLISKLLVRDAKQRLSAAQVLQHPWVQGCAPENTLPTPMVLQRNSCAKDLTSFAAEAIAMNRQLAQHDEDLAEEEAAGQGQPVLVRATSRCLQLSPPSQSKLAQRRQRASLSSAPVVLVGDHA

[5] = biological target: T5, panel of 374 wild-type kinases (Homo sapiens, UniProt Q9UF33); conditions: EPHA6, read-out: % Enzyme Activity (relative to DMSO controls)
T5 construct: purchased Reaction Biology Corporation
T5 sequence (Q9UF33 23-1036): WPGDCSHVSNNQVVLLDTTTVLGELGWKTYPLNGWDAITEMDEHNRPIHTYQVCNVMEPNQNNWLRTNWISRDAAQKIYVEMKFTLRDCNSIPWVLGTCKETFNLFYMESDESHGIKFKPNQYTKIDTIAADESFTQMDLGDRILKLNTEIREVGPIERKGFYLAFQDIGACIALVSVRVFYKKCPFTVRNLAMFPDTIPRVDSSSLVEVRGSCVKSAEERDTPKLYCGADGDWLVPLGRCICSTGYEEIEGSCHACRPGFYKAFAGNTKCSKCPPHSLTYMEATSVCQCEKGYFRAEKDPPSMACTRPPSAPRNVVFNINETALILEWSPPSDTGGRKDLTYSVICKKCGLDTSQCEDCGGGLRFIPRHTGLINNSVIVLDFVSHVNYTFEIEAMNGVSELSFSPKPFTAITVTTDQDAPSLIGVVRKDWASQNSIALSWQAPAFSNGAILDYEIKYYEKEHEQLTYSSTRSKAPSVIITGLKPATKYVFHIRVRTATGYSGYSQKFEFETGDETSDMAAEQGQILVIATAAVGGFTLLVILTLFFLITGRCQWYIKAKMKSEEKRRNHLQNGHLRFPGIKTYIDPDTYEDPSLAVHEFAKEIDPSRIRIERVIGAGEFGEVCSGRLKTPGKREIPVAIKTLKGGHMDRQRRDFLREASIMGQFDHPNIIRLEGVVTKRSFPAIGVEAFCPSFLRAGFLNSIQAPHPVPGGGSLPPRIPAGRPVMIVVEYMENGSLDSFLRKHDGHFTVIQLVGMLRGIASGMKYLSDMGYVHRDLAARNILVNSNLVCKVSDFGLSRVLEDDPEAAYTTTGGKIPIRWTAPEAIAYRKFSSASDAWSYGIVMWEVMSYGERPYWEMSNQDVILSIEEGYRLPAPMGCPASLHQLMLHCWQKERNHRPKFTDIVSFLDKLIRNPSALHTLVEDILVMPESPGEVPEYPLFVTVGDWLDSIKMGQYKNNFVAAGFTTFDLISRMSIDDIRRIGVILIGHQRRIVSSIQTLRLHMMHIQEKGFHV

T1 sequence (P23458 whole entry): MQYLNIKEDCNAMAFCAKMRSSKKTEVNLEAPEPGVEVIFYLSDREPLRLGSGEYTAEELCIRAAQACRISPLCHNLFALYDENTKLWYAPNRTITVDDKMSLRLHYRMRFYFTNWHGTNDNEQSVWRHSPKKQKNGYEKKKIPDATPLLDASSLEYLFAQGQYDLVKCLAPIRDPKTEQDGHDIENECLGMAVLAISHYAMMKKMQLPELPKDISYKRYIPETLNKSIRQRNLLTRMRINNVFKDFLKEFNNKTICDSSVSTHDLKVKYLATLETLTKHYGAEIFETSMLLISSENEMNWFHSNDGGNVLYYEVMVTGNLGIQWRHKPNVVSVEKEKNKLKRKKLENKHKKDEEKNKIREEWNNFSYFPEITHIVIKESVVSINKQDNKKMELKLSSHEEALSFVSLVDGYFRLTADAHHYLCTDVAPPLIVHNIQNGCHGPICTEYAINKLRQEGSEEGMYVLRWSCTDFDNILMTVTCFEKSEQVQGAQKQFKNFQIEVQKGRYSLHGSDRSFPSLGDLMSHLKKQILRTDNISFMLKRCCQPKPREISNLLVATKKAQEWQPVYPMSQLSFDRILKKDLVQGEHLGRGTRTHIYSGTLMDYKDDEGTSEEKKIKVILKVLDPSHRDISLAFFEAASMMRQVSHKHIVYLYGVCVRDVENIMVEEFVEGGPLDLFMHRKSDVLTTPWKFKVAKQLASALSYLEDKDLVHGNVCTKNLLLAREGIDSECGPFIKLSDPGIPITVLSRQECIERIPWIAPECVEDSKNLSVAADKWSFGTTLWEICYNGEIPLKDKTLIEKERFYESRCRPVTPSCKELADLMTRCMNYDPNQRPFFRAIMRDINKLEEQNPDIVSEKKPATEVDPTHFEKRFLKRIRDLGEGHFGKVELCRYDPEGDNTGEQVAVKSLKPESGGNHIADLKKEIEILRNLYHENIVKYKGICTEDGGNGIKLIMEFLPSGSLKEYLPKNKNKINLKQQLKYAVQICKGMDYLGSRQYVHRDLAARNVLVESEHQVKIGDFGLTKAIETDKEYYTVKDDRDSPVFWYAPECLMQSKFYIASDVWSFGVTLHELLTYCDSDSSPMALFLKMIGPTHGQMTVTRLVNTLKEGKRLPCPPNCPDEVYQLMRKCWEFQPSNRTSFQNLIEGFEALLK

Compound | remaining activity at 5 µM [1] | remaining activity at 5 µM [2] | remaining activity at 5 µM [3] | remaining activity at 5 µM [4] | remaining activity at 5 µM [5] | remaining activity at 10 µM ([1]; 10 uM) | remaining activity at 10 µM ([2]; 10 uM) | remaining activity at 10 µM ([3]; 10 uM) | remaining activity at 10 µM ([4]; 10 uM) | remaining activity at 10 µM ([5]; 10 uM)
O=C(Nc1cnn(-c2csc(C(=O)NC3COC3)c2)c1)Nc1ccccc1Cl [Compound 17, 4-(4-(3-(2-chlorophenyl)ureido)-1H-pyrazol-1-yl)-N-(oxetan-3-yl)thiophene-2-carboxamide] | 98.7% | 109% | 122% | 99.3% | 99.5% | – | – | – | – | –
O=C(Nc1cnn(-c2csc(C(=O)NC3COC3)c2)c1)Nc1c(F)cccc1Cl [Compound 25, 4-(4-(3-(2-chloro-6-fluorophenyl)ureido)-1H-pyrazol-1-yl)-N-(oxetan-3-yl)thiophene-2-carboxamide] | 107% | 114% | 90.6% | 90.8% | 95.7% | – | – | – | – | –
Cc1sc(C(=O)NC2COC2)cc1-n1cc(NC(=O)Nc2c(F)cccc2Cl)cn1 [Compound 27, 4-(4-(3-(2-chloro-6-fluorophenyl)ureido)-1H-pyrazol-1-yl)-5-methyl-N-(oxetan-3-yl)thiophene-2-carboxamide] | – | – | – | – | – | 72.2% | 104% | 110% | 83.4% | 80.2%
